Data as given in patent US10774076B2, “Benzazole compounds and methods for making and using the compounds” (Rigel Pharmaceuticals, Inc., priority 2015, dated 2020).

How the values were obtained:
IL23-p19 = assay: Compound screening using DC cells: LPS-induced IL-23 (p19/p40) ELISA in IFNγ-primed dendritic cells differentiated from human PBMC; format: cell-based; conditions: Dendritic cell, human PBMC-derived dendritic cells, LPS 1 μg/ml, 18 hours, 10 pt
Protocol: Compound Screening Using DC Cells
Human PBMC cells (400 million) obtained from the vendor were transferred into a T-175 flask containing 15 ml RPMI media (10% FBS) and incubate for 2 hours at 37° C. After 2 hours, the media including floating cells was aspirated out carefully and 12 ml of fresh RPMI media (10% FBS) containing GMCSF (100 ng/ml) and IL4 (20 ng/ml) was added, and the flask was kept in a 37° C. incubator for 7 days.
After 3 days, fresh GMCSF (100 ng/ml) and IL4 (20 ng/ml) were added to the flask and the incubation continued. After 7 days, the fully differentiated cells were harvested by spinning down (1200 rpm/5 min) and aspirating the media. The cells were suspended in fresh RPMI media (10% FBS) containing 50 ng/ml IFNγ (1000 U/ml) and then plated (50K/well in 100 μl) onto a white clear bottom 96 well plate and left in a 37° C. incubator for 24 hours.
After 24 hours incubation, 100 μl of RPMI media was added containing 2× concentrated test compound per well to the above cell-culture media (final concentration becomes 1×) and the plates were pre-incubated for 1 hour at 37° C. before stimulating with LPS.
After 1 hour compound pre-incubation, 10 μl per well of 20× concentrated LPS solution in RPMI media was added to give a final concentration of 1 μg/ml. The mixture was shaken and incubated the plates at 37° C. for an additional 18 hours.
155 μl of the supernatant was harvested from each well carefully (without the tip touching the bottom of the well) and to the remaining 50 μl/well of the cell culture plate was added 50 μl of Cell Titer Glo reagent. The mixture was incubated for 1-2 minutes on a shaker and the plate was read for luminescence intensity to determine the compound cytotoxicity. The cell culture supernatant collected above was used to carry out IL23 ELISA (65 μl—Supernatant) and IL10 ELISA (90 μl—Supernatant) as described below.
Human IL-23 (p19/p40) ELISA Protocol (e-Biosciences)
To 10.5 ml PBS add 50 μl of anti-IL23 (p19) was added capture antibody (2.5 μg/ml). The mixture was mixed well and 100 μl of the coating solution was added to each well of the 96 well white plates from Pierce. The wells were covered and incubated overnight at 4° C.
The anti-IL23 (p19)-antibody-coated plates were washed 2× using TBST (use plate washer) and blocked using 200 μl of 0.5% Casein for 1.5-2 hours at room temperature with shaking.
The plates were washed 2× using TBST and the supernatant was transferred (65 μl/well) to the above pre-blocked/IL23(p19)-antibody-coated 96 well plate, and incubated at room temperature for 1.5 hours with shaking.
The plates were washed 4× using TBST (plate washer) and 100 μl/well detection antibody solution prepared from 2 μl of biotin labeled anti-IL-12 (p40/p70) antibody in 11 ml 1% BSA/PBS solution (I-5000 dilution) was added. The plates were incubated for 1 hour with shaking at Room temperature.
Again, the plates were washed 4× with TBST and 100 μl of HRP labeled Streptavidin (R&D Systems) solution (10 μl/10 ml 1% BSA solution) was added, and the plates were incubated at room temperature for another 45 minutes with shaking.
After 45 minutes, the plates were washed with TBST 4× and 100 ul/well Super Signal ELISA Pico Chemiluminescent Substrate from Pierce (3.5 ml A+3.5 ml B+3.5 ml MQ water) was added. The plates were shaken for 1-2 minutes then read on a plate reader.

IL23p19 = assay: LPS Induced IL23p19 in THP-1 Cells (with IFNγ Primed) Assay; format: cell-based; conditions: Homo sapiens, IFNγ primed (50 ng/mL), LPS 1 ug/mL, 18 hours, 10 pt, read-out: IL23-p19 ELISA, THP1-IFNy, LPS, 10 pt EC50
Description: LPS Induced IL23p19 in THP-1 Cells (with IFNγ Primed) Assay
THP-1 Cells (ATCC, Cat # TIB-202), Dimethyl Sulfoxide (DMSO) (Sigma-Aldrich, Cat # D2650), RPMI 1640 (Cellgro, Cat #10-040-CM), Fetal Bovine Serum (Sigma, Cat # F4135), Albumin From Bovine Serum (BSA) (Sigma-Aldrich, Cat # A7906), LPS (Serotype K-235, Sigma, Product Number L 2143), IFNγ (Peprotech, Cat #300-02)
Capture antibody: Human IL-23p19 ELISA (e-Bioscience, Cat. #14-7238-85),
Detection antibody: Primary Mouse Biotinylated anti-human IL-12(p40/p70) (e-Bioscience, Cat. #13-7129-85), Secondary HRP-conjugated Streptavidin (R&D Systems, Cat # DY998), 1×PBST Washing Buffer (PBS-Tween tablet) (VWR International, Cat #80058-558), ELISA Blocking Buffer (PBS with 1% BSA), ELISA Dilution Buffer (PBS with 1% BSA), 384 Well Flat-Bottom, MaxiSorp Black Immuno Plates (Thermo Scientific, Cat #12-565-346), 384 Well Flat-Bottom, White Tissue Culture Plates (Thermo Scientific, Cat #12-565-343), Super Signal ELISA Pico Chemiluminescent Substrate (Thermo Scientific, Cat #37070), Cell Titer Glo reagent (Promega, Cat # G7573), Positive control, IKK2VI inhibitor (Calbiochem, Cat #401483), AquaMax 4000 plate washer (Molecular Devices), Luminometer, Wallac Victor2 1420 Multilabel Counter. Method THP-1 Cells Stimulation:
On day 1, 50K/well THP-1 cells were seeded and primed with IFNγ (50 ng/mL) in 384-well plates for about 18 hours in RPMI media with 10% FBS. On day 2, the compound was serially diluted in DMSO from 5 mM in 3-fold dilutions, and then diluted 1:125 in RPMI media with 10% FBS. 50 μL/well 2× compound was added to 50 μL/well THP-1 cells (with IFNγ primed) in duplicate in 384 well tissue culture plates. The cells were pre-incubated with compound for 1 hour at 37° C., 5% CO2 before addition of 10 μL/well 11×LPS to give a final concentration of 1 ug/mL LPS. Day 3, after stimulation for 18 hours at 37° C., 5% CO2, the assay plate was centrifuged and 70 μL/well supernatant was harvested. IL-23p19 protein in 70 μL/well of supernatant was measured by sandwich ELISA, and 25 μl/well Cell Titer Glo reagent was added to the remaining cells to measure compound toxicity.
Human IL-23p19 Sandwich ELISA:
Maxisorp immuno ELISA plates were pre-coated with 25 μL/well of anti-IL-23p19 capture antibody (2.5 ug/mL) in PBS overnight at room temperature. After washing with 1×PBST, the plates were blocked using 100 μL/well of 1% BSA in PBS for 2 hours at room temperature. The plates were washed three times with 1×PBST and 70 μL/well supernatant were added. The plates were incubated at room temperature for 2 hours with shaking and washed three times with 1×PBST. 25 μL/well of biotin labeled anti-IL-12(p40/p70) detection antibody (100 ng/mL) in PBS with 1% BSA was added and the plates were incubated at room temperature for 2 hours with shaking. After washing three times with 1×PBST, 25 μL/well of streptavidin-HRP (1:200) in PBS with 1% BSA was added and the plates were incubated at room temperature for 20 minutes with shaking. The plates were washed three times with 1×PBST and 25 μL/well of Super Signal ELISA Pico Chemiluminescent Substrate were added. The plates were read with a luminometer, and the chemiluminescence values were entered into Athena (Rigel) for curve fitting, EC50 calculation, and database storage.

Row | SMILES | EC50 (IL23-p19) [µM] | EC50 (IL23p19) [µM]
1 | O=C(Nc1cc2sc(N3CCOCC3)nc2cc1N1CCCCC1)c1ccc(-c2cnc3[nH]ccc3c2)o1 [Compound I-6, N-(2-morpholino-5-(piperidin-1-yl)benzo[d]thiazol-6-yl)-5-(1H-pyrrolo[2,3-b]pyridin-5-yl)furan-2-carboxamide] | 14 | 40.5
2 | O=C(Nc1cc2oc(N3CCOCC3)nc2cc1N1CCCCC1)c1csc(-c2cn[nH]c2)n1 [Compound I-12, N-(2-morpholino-5-(piperidin-1-yl)benzo[d]oxazol-6-yl)-2-(1H-pyrazol-4-yl)thiazole-4-carboxamide] | 0.02 | 0.0539
3 | O=C(Nc1cc2oc(N3CCOCC3)nc2cc1N1CCC(F)(F)CC1)c1csc(-c2cn[nH]c2)n1 [Compound I-29, N-(5-(4,4-difluoropiperidin-1-yl)-2-morpholinobenzo[d]oxazol-6-yl)-2-(1H-pyrazol-4-yl)thiazole-4-carboxamide] | 0.106 | 0.302
4 | CN1CCN(c2nc3cc(N4CCCCC4)c(NC(=O)c4csc(-c5ccc(N)nc5)n4)cc3o2)CC1 [Compound I-19, 2-(6-aminopyridin-3-yl)-N-(2-(4-methylpiperazin-1-yl)-5-(piperidin-1-yl)benzo[d]oxazol-6-yl)thiazole-4-carboxamide] | 0.674 | 0.938
5 | O=C(Nc1cc2oc(N3CCOCC3)nc2cc1N1CCCC(F)C1)c1ccc(-c2cn[nH]c2)o1 (stereo not drawn) [Compound I-38, N-(5-(3-fluoropiperidin-1-yl)-2-morpholinobenzo[d]oxazol-6-yl)-5-(1H-pyrazol-4-yl)furan-2-carboxamide] | 0.0141 | 0.0316
6 | Nc1ccc(-c2ccc(C(=O)Nc3cc4sc(N5CCOCC5)nc4cc3N3CCCCC3)o2)cn1 [Compound I-5, 5-(6-aminopyridin-3-yl)-N-(2-morpholino-5-(piperidin-1-yl)benzo[d]thiazol-6-yl)furan-2-carboxamide] | 0.257 | 0.432
7 | COCCN(C)c1nc2cc(N3CCCCC3)c(NC(=O)c3csc(-c4cn[nH]c4)n3)cc2o1 [Compound I-51, N-(2-((2-methoxyethyl)(methyl)amino)-5-(piperidin-1-yl)benzo[d]oxazol-6-yl)-2-(1H-pyrazol-4-yl)thiazole-4-carboxamide] | 0.0411 | 0.0742
8 | Cc1cc(-c2nc(C(=O)Nc3cc4oc(N5CCN(C)CC5)nc4cc3N3CCCCC3)cs2)ccn1 [Compound I-22, N-(2-(4-methylpiperazin-1-yl)-5-(piperidin-1-yl)benzo[d]oxazol-6-yl)-2-(2-methylpyridin-4-yl)thiazole-4-carboxamide] | 3.18 | 0.677
9 | O=C(Nc1cc2oc(N3CCOCC3)nc2cc1N1CCCC(F)(F)C1)c1ccc(-c2cn[nH]c2)o1 [Compound I-42, N-(5-(3,3-difluoropiperidin-1-yl)-2-morpholinobenzo[d]oxazol-6-yl)-5-(1H-pyrazol-4-yl)furan-2-carboxamide] | 0.0848 | 0.0606
10 | O=C(Nc1cc2oc(N3CCOCC3)nc2cc1N1CCOCC1)c1csc(-c2cn[nH]c2)n1 [Compound I-49, N-(2,5-dimorpholinobenzo[d]oxazol-6-yl)-2-(1H-pyrazol-4-yl)thiazole-4-carboxamide] | 0.0481 | 0.0504
11 | Cc1cc(-c2ccc(C(=O)Nc3cc4oc(N5CCN(C)CC5)nc4cc3N3CCCCC3)o2)ccn1 [Compound I-18, N-(2-(4-methylpiperazin-1-yl)-5-(piperidin-1-yl)benzo[d]oxazol-6-yl)-5-(2-methylpyridin-4-yl)furan-2-carboxamide] | 0.889 | 7.51
12 | O=C(Nc1cc2sc(N3CCOCC3)nc2cc1N1CCCCC1)c1ccc(-c2cn[nH]c2)o1 [Compound I-7, N-(2-morpholino-5-(piperidin-1-yl)benzo[d]thiazol-6-yl)-5-(1H-pyrazol-4-yl)furan-2-carboxamide] | 0.0136 | 0.026
13 | CN1CCN(c2nc3cc(N4CCCCC4)c(NC(=O)c4csc(-c5cn[nH]c5)n4)cc3o2)CC1 [Compound I-20, N-(2-(4-methylpiperazin-1-yl)-5-(piperidin-1-yl)benzo[d]oxazol-6-yl)-2-(1H-pyrazol-4-yl)thiazole-4-carboxamide] | 0.018 | 0.0224
14 | CN1CCN(c2nc3cc(N4CCCCC4)c(NC(=O)c4csc(-c5cc[nH]n5)n4)cc3o2)CC1 [Compound I-21, N-(2-(4-methylpiperazin-1-yl)-5-(piperidin-1-yl)benzo[d]oxazol-6-yl)-2-(1H-pyrazol-3-yl)thiazole-4-carboxamide] | 1.71 | 2.18
15 | O=C(Nc1cc2oc(N3CCOCC3)nc2cc1N1CCC(F)(F)CC1)c1ccc(-c2cn[nH]c2)o1 [Compound I-27, N-(5-(4,4-difluoropiperidin-1-yl)-2-morpholinobenzo[d]oxazol-6-yl)-5-(1H-pyrazol-4-yl)furan-2-carboxamide] | 0.747 | 0.527
